Broadly, the IC50 is the concentration that inhibits the measured activity by half. Higher therefore signals a need for much substance.

Molecules are shown by their SMILES.

The experiment deals with IRAK4 (Homo sapiens (Human), UniProt Q9NWZ3). The experiment is described as follows: IRAK4 Kinase Assay (IMAP fluorescence polarization). The settings on record: 0.5 nM GST tagged IRAK4, 100 μM ATP, 100 nM fluorescent peptide substrate RP7030, 30 minutes at 25° C. The class given is biochemical. The procedure: The kinase activity of IRAK4 is determined by its ability to catalyze the phosphorylation of a fluorescent polypeptide substrate. The extent of phosphorylation is measured using the IMAP technology (Molecular Devices) where the phosphorylated fluorescent substrate binds to the large M(III)-based nanoparticles which reduces the rotational speed of the substrate and thus increases its fluorescent polarization (FP).
Chain of IRAK4 (Q9NWZ3 whole entry): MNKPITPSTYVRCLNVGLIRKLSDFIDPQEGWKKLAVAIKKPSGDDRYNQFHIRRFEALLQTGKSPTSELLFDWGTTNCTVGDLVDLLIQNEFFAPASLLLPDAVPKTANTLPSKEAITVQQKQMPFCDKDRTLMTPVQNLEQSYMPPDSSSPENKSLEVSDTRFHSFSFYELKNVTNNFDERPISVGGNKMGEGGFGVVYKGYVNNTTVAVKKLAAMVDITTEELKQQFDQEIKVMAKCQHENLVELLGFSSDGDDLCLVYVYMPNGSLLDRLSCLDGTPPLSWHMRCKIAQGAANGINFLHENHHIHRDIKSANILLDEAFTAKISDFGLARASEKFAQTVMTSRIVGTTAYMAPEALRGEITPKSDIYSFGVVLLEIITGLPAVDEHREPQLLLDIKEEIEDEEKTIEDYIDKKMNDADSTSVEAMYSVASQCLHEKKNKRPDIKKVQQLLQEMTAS
20 μL reaction mixture contains 10 mM TriHCl, pH 7.2, 0.5 nM GST tagged IRAK4 (SignalChem), 100 nM fluorescent peptide substrate (RP7030, Molecular Devices), 100 μM ATP, 1 mM DDT, 1 mM MgCl2, and 0.01% Tween 20. The reaction is initiated by the addition of ATP. After incubation for 30 minutes at 25° C., 60 μL of Progressive IMAP Reagent (Molecular Devices) is added to stop the reaction. Change in RP7030's FP is determined by a FP reader (Analyst HT, LJL BioSystems).
In turn, `COc1cc(-c2ccc3ncnc(N[C@H]4CC[C@H](N(C)C)CC4)c3c2)ccn1` [Example 1-8, trans-N′-[6-(2-methoxypyridin-4-yl)quinazolin-4-yl]-N,N-dimethylcyclohexane-1,4-diamine] gave an IC50 of 0.025 µM.

Turning to `CC(C)c1nc(-c2ccc3ncnc(N[C@H]4CC[C@H](N5CCOCC5)CC4)c3c2)cs1` [Example 2-3, 6-[2-(1-methylethyl)-1,3-thiazol-4-yl]-N-(trans-4-morpholin-4-ylcyclohexyl)quinazolin-4-amine], the IC50 stood at 0.39 µM.

`Cc1c(-c2cncc(O)c2)ccc2ncnc(N[C@H]3CC[C@H](N4CCOCC4)CC3)c12` [Example 1-79, 5-{5-methyl-4-[(trans-4-morpholin-4-ylcyclohexyl)amino]quinazolin-6-yl}pyridin-3-ol] showed an IC50 of 0.038 µM.

`CCOC(C)n1cc(-c2ccc3ncnc(N[C@H]4CC[C@H](N(C)C)CC4)c3c2)cn1` (stereo partly drawn) [Example 1-14, trans-N′-{6-[1-(1-ethoxyethyl)-1H-pyrazol-4-yl]quinazolin-4-yl}-N,N-dimethylcyclohexane-1,4-diamine] returned an IC50 of 1.36 µM.

Turning to `Oc1cccc(-c2ccc3ncnc(N[C@H]4CC[C@H](N5CCOCC5)CC4)c3c2)c1` [Example 1-72, 3-{4-[(trans-4-morpholin-4-ylcyclohexyl)amino]quinazolin-6-yl}phenol], the IC50 amounted to 0.006 µM.

`Cc1c(-c2cncnc2)ccc2ncnc(N[C@H]3CC[C@H](N4CCOCC4)CC3)c12` [Example 1-76, 5-methyl-N-(trans-4-morpholin-4-ylcyclohexyl)-6-pyrimidin-5-ylquinazolin-4-amine] gave an IC50 of 0.223 µM.

In the case of `CNc1cncc(-c2cc3c(N[C@H]4CC[C@H](N5CCOCC5)CC4)ncnc3cc2F)c1` [Example 1-86, 7-fluoro-6-[5-(methylamino)pyridin-3-yl]-N-(trans-4-morpholin-4-ylcyclohexyl)quinazolin-4-amine], half-maximal inhibition (IC50) was put at 0.023 µM.

`CC(C)(O)c1cncc(-c2ccc3ncnc(N[C@H]4CC[C@H](N5CCOCC5)CC4)c3c2)c1` [Example 1-95, 2-[5-(4-{[trans-4-(morpholin-4-yl)cyclohexyl]amino}quinazolin-6-yl)pyridin-3-yl]propan-2-ol]: the IC50 was determined as 0.33 µM.

`Nc1cncc(-c2ccc3ncnc(N[C@H]4CC[C@H](N5CCOCC5)CC4)c3c2)c1` [Example 1-73, 6-(5-aminopyridin-3-yl)-N-(trans-4-morpholin-4-ylcyclohexyl)quinazolin-4-amine] had an IC50 of 0.001 µM.

Regarding `Oc1cc(-c2ccc3ncnc(N[C@H]4CC[C@H](N5CCOCC5)CC4)c3c2)cnc1F` [Example 2-30, 2-fluoro-5-(4-{[trans-4-(morpholin-4-yl)cyclohexyl]amino}quinazolin-6-yl)pyridin-3-ol], the IC50 is less than 0.0005 µM.

`CN(C1CC1)[C@H]1CC[C@H](Nc2ncnc3ccc(-c4cncc(O)c4)cc23)CC1` [Example 5-3, 5-[4-({trans-4-[cyclopropyl(methyl)amino]cyclohexyl}amino)quinazolin-6-yl]pyridin-3-ol] registered an IC50 of 0.001 µM.

On to `CN(C)C1CCC(Nc2ncnc3ccc(-c4cccnc4)cc23)CC1` (single isomer, unassigned) [Example 1-7, cis or trans-N,N-dimethyl-N′-[6-(pyridin-3-yl)quinazolin-4-yl]cyclohexane-1,4-diamine], for which the IC50 worked out at 0.013 µM.

`Fc1c[nH]nc1-c1ccc2ncnc(N[C@H]3CC[C@H](N4CCOCC4)CC3)c2c1` [Example 2-9, 6-(4-fluoro-1H-pyrazol-3-yl)-N-(trans-4-morpholin-4-ylcyclohexyl)quinazolin-4-amine] yielded an IC50 of 0.012 µM.

`Fc1cc(-c2ccc3ncnc(N[C@H]4CC[C@H](N5CCOCC5)CC4)c3c2)cnc1Cl` [Example 2-33, 6-(6-chloro-5-fluoropyridin-3-yl)-N-[trans-4-(morpholin-4-yl)cyclohexyl]quinazolin-4-amine] registered an IC50 of 0.028 µM.

With `CN(C)[C@H]1CC[C@H](Nc2ncnc3ccc(-c4cncc(C#N)c4)cc23)CC1` [Example 1-54, 5-(4-{[trans-4-(dimethylamino)cyclohexyl]amino}quinazolin-6-yl)pyridine-3-carbonitrile], inhibition was half-maximal at 0.046 µM (IC50).

`Fc1cc(-c2ccc3ncnc(N[C@H]4CC[C@H](N5CCOCC5)CC4)c3c2)cnc1F` [Example 2-34, 6-(5,6-difluoropyridin-3-yl)-N-[trans-4-(morpholin-4-yl)cyclohexyl]quinazolin-4-amine] returned an IC50 of 0.013 µM.

With `Oc1cc(-c2ccc3ncnc(N[C@H]4CC[C@H](N5CCC(F)(F)CC5)CC4)c3c2)cnc1F` [Example 5-1, 5-(4-{[Trans-4-(4,4-difluoropiperidin-1-yl)cyclohexyl]amino}quinazolin-6-yl)-2-fluoropyridin-3-ol], the IC50 is less than 0.0005 µM.

As for `N#Cc1nn[nH]c1-c1ccc2ncnc(N[C@H]3CC[C@H](N4CCOCC4)CC3)c2c1` [Example 2-11, 5-{4-[(trans-4-morpholin-4-ylcyclohexyl)amino]quinazolin-6-yl}-1H-1,2,3-triazole-4-carbonitrile], the IC50 was 0.062 µM.

The compound `CN(C)C1CCC(Nc2ncnc3ccc(-c4cn[nH]c4)cc23)CC1` (stereo not drawn) [Example 1-10, cis or trans-N,N-dimethyl-N′-[6-(1H-pyrazol-4-yl)quinazolin-4-yl]cyclohexane-1,4-diamine] came in with an IC50 of 0.001 µM.

Compound `N#Cc1cscc1-c1ccc2ncnc(N[C@H]3CC[C@H](N4CCOCC4)CC3)c2c1` [Example 2-18, 4-(4-{[trans-4-(morpholin-4-yl)cyclohexyl]amino}quinazolin-6-yl)thiophene-3-carbonitrile] showed an IC50 of 0.052 µM.

Compound `c1nc(N[C@H]2CC[C@H](N3CCOCC3)CC2)c2cc(-c3cn[nH]c3)ccc2n1` [Example 1-82, N-(trans-4-morpholin-4-ylcyclohexyl)-6-(1H-pyrazol-4-yl)quinazolin-4-amine] displayed an IC50 of 0.002 µM.

With `CNc1cc(-c2ccc3ncnc(N[C@H]4CC[C@H](N5CCC(F)(F)CC5)CC4)c3c2)cnc1F` [Example 5-27, N-[trans-4-(4,4-difluoropiperidin-1-yl)cyclohexyl]-6-[6-fluoro-5-(methylamino)pyridin-3-yl]quinazolin-4-amine], the IC50 was found to be 0.002 µM.

`CNc1cncc(-c2ccc3ncnc(N[C@H]4CC[C@H](N5CCC(F)(F)CC5)CC4)c3c2)c1` [Example 5-8, N-[trans-4-(4,4-difluoropiperidin-1-yl)cyclohexyl]-6-[5-(methylamino)pyridin-3-yl]quinazolin-4-amine]: the midpoint of inhibition, the IC50, lay at 0.003 µM.

Consider `Nc1cc(-c2ccc3ncnc(N[C@H]4CC[C@H](N5CCOCC5)CC4)c3c2)cnc1Cl` [Example 2-36, 6-(5-amino-6-chloropyridin-3-yl)-N-[trans-4-(morpholin-4-yl)cyclohexyl]quinazolin-4-amine], for which inhibition was half-maximal at 0.01 µM (IC50).

Turning to `COc1ncc(-c2ccc3ncnc(N[C@H]4CC[C@H](N(C)C)CC4)c3c2)cc1F` [Example 1-52, trans-N′-[6-(5-fluoro-6-methoxypyridin-3-yl)quinazolin-4-yl]-N,N-dimethylcyclohexane-1,4-diamine], the IC50 was 0.2 µM.

`Cc1nc[nH]c1-c1ccc2ncnc(N[C@H]3CC[C@H](N4CCOCC4)CC3)c2c1` [Example 2-19, 6-(4-methyl-1H-imidazol-5-yl)-N-[trans-4-(morpholin-4-yl)cyclohexyl]quinazolin-4-amine] yielded an IC50 of 0.184 µM.

On to `FC(F)(F)c1ncc(-c2ccc3ncnc(N[C@H]4CC[C@@H](N5CCOCC5)CC4)c3c2)cn1` [Example 1-90, N-[cis-4-(morpholin-4-yl)cyclohexyl]-6-[2-(trifluoromethyl)pyrimidin-5-yl]quinazolin-4-amine], for which the IC50 was found to be 0.169 µM.

With `CNc1cncc(-c2ccc3ncnc(N[C@H]4CC[C@H](N5CCC[C@@H](CN6CCOCC6)C5)CC4)c3c2)c1` [Example 5-12, 6-[5-(methylamino)pyridin-3-yl]-N-{trans-4-[(3S)-3-(morpholin-4-ylmethyl)piperidin-1-yl]cyclohexyl}quinazolin-4-amine], the IC50 came to 0.005 µM.

For `CN(C)[C@H]1CC[C@H](Nc2ncnc3ccc(-c4cnn(Cc5ccncc5)c4)cc23)CC1` [Example 1-19, trans-N,N-dimethyl-N′-{6-[1-(pyridin-4-ylmethyl)-1H-pyrazol-4-yl]quinazolin-4-yl}cyclohexane-1,4-diamine], half-maximal inhibition (IC50) required 0.358 µM.

In turn, `Cc1noc(C)c1-c1ccc2ncnc(N[C@H]3CC[C@H](N(C)C)CC3)c2c1` [Example 1-24, trans-N′-[6-(3,5-dimethylisoxazol-4-yl)quinazolin-4-yl]-N,N-dimethylcyclohexane-1,4-diamine] yielded an IC50 of 0.333 µM.

As to `CN(C)[C@H]1CC[C@H](Nc2ncnc3ccc(-c4cnccc4C(F)(F)F)cc23)CC1` [Example 1-36, trans-N,N-dimethyl-N′-{6-[4-(trifluoromethyl)pyridin-3-yl]quinazolin-4-yl}cyclohexane-1,4-diamine], the IC50 was 0.019 µM.

Consider `OCc1cncc(-c2ccc3ncnc(N[C@H]4CC[C@H](N5CCOCC5)CC4)c3c2)c1` [Example 1-94, [5-(4-{[trans-4-(morpholin-4-yl)cyclohexyl]amino}quinazolin-6-yl)pyridin-3-yl]methanol], for which the IC50 stood at 0.01 µM.

As for `O=C(O)c1cccc(-c2ccc3ncnc(N[C@H]4CC[C@H](N5CCOCC5)CC4)c3c2)n1` [Example 2-8, 6-{4-[(trans-4-morpholin-4-ylcyclohexyl)amino]quinazolin-6-yl}pyridine-2-carboxylic acid], half-maximal inhibition (IC50) was put at 0.122 µM.

The record behind these values is US9969749B2, “Inhibitors of IRAK4 activity” (MERCK SHARP & DOHME CORP., priority 2014, dated 2018).
